In US20190142800A1, “SYNERGISTIC ANTIFUNGAL COMPOSITIONS AND METHODS THEREOF” (VYOME THERAPEUTICS LIMITED, priority 2016, published 2019):

How the values were obtained:
[1] = test system: terbinafine resistant Trichophyton interdigitale (GTB-2S); assay: Checkerboard assay on terbinafine resistant Trichophyton interdigitale (GTB-2S); format: cell-based; conditions: for MIC: Trichophyton interdigitale
Method: (§1) The synergy is measured by determining the fractional inhibitory concentration (FIC) value of the combination. This experimental set up, called checkerboard method, allows measurement of a desired effect (inhibition of fungal growth in this case) at different combinations of various concentrations of the two agents (antifungal agent and fatty acid/ester). […] No agent is added to the penultimate column on the right and the bottom row. The final column on the right is used for growth control (only inoculum in broth) and sterility control (broth alone, no inoculum). […] FIC values for both agents in a particular well were calculated in this way followed by determination of the FIC index (sum of the FICs of each drug in the concerned well). […] Agents Chemother.
(§2) Using the checkerboard layout experimental setup described above (FIG. 1A), various medium-chain fatty acids were tested for their ability to potentiate the activity of a known antifungal agent. Concentrations above and below the MIC of each test agent were tested using serial dilution. The same procedure was expanded to test combinations of various medium-chain fatty acids C-1 to C-14 (such caprylic acid, undecylenic acid and lauric acid) and esters thereof, with antifungal agents from various classes including azoles, allylamines, benzylamines, zinc pyrithione and piroctone olamine against both susceptible and resistant Trichophyton spp. (filamentous fungus) and Candida spp. (yeast).
(§3) Potentiation of the activity of antimycotic agents using ester derivatives of medium chain fatty acids was tested in a standard, well accepted in vitro assay system to check for synergy. This experimental set up, called checkerboard method, allows measurement of a desired effect (inhibition of fungal growth in this case) at different combinations of various concentrations of two agents. A chosen medium chain fatty acid (C-1 to C-14) or its ester derivative was tested for its ability to potentiate the activity of a known antifungal agent (various classes) using the checkerboard layout. Various concentrations above and below the MIC of each test agent were tested using serial dilution in Sabouraud dextrose broth. […] FIC values for both test agents in a particular well are calculated in this way followed by determination of the FIC index (sum of the FICs of each drug in the concerned well).

C. albicans (ATCC-90028) = assay: Checkerboard assay on C. albicans (ATCC-90028); format: cell-based, Candida albicans; conditions: for MIC: Candida albicans, ATCC90028, agent alone, Table 8
Method: (§4) The synergy is measured by determining the fractional inhibitory concentration (FIC) value of the combination. This experimental set up, called checkerboard method, allows measurement of a desired effect (inhibition of fungal growth in this case) at different combinations of various concentrations of the two agents (antifungal agent and fatty acid/ester). […] No agent is added to the penultimate column on the right and the bottom row. The final column on the right is used for growth control (only inoculum in broth) and sterility control (broth alone, no inoculum). […] FIC value for each agent in a particular well of the checkerboard layout was calculated by dividing the agent concentration in that well by the established MIC value of the agent against the test organism (Hsieh et al., Synergy assessed by checkerboard: A critical Analysis, Diagn. Microbiol. Infect Dis. (1993) 16:343-349). FIC values for both agents in a particular well were calculated in this way followed by determination of the FIC index (sum of the FICs of each drug in the concerned well). […] Agents Chemother. (2010) 54(2): 602-609].
as §2
(§5) Potentiation of the activity of antimycotic agents using ester derivatives of medium chain fatty acids was tested in a standard, well accepted in vitro assay system to check for synergy. This experimental set up, called checkerboard method, allows measurement of a desired effect (inhibition of fungal growth in this case) at different combinations of various concentrations of two agents. A chosen medium chain fatty acid (C-1 to C-14) or its ester derivative was tested for its ability to potentiate the activity of a known antifungal agent (various classes) using the checkerboard layout. Various concentrations above and below the MIC of each test agent were tested using serial dilution in Sabouraud dextrose broth. […] FIC value for a drug in a particular well of the checkerboard layout is calculated by dividing the drug concentration in that well by the established MIC value of the drug against the test organism (Hsieh et al., Synergy assessed by checkerboard: A critical Analysis, Diagn. Microbiol. Infect Dis. (1993) 16:343-349). FIC values for both test agents in a particular well are calculated in this way followed by determination of the FIC index (sum of the FICs of each drug in the concerned well).

[2] = test system: azole resistant C. albicans MTCC 227; assay: Checkerboard assay on azole resistant C. albicans MTCC 227; format: cell-based, Candida albicans; conditions: for MIC: Candida albicans, MTCC227, agent alone
Method: as §1, §2, §3

[3] = test system: Trichophyton rubrum (ATCC-28188); assay: Checkerboard assay of fatty acid/ester with antifungals on Trichophyton rubrum (ATCC 28188); format: cell-based; design: key to FIC index: FIC index = sum of FICs; FIC = agent conc in well / agent MIC; conditions: for MIC: Trichophyton rubrum, ATCC28188, agent alone
Method: as §4, §2, §5

[4] = agent's MIC in combination terbinafine or butenafine + caprylic acid
[5] = agent's MIC in combination terbinafine or butenafine + glyceryl monocaprylate
[6] = combination terbinafine or butenafine + caprylic acid
[7] = combination terbinafine or butenafine + glyceryl monocaprylate
[8] = in combination with caprylic acid
[9] = in combination with glyceryl monocaprylate
[10] = in combination with propylene glycol monocaprylate
[11] = agent's MIC in combination luliconazole + glyceryl monocaprylate
[12] = combination luliconazole + glyceryl monocaprylate
[13] = Table 11, glyceryl monocaprylate series
[14] = agent's MIC in combination antifungal + glyceryl monocaprylate (partner: other agent of same combination no.)
[15] = combination antifungal + glyceryl monocaprylate
[16] = Table 9, caprylic acid (C8) series
[17] = Table 10, propylene glycol monocaprylate series
[18] = Table 12, undecylenic acid (C11) series
[19] = Table 13, lauric acid (C12) series
[20] = agent's MIC in combination antifungal + caprylic acid (partner: other agent of same combination no.)
[21] = agent's MIC in combination antifungal + lauric acid (partner: other agent of same combination no.)
[22] = agent's MIC in combination antifungal + propylene glycol monocaprylate (partner: other agent of same combination no.)
[23] = agent's MIC in combination antifungal + undecylenic acid (partner: other agent of same combination no.)
[24] = antifungal in combination with caprylic acid
[25] = antifungal in combination with glyceryl monocaprylate
[26] = antifungal in combination with lauric acid
[27] = antifungal in combination with propylene glycol monocaprylate
[28] = antifungal in combination with propylene glycol monolaurate
[29] = antifungal in combination with undecylenic acid
[30] = combination antifungal + caprylic acid
[31] = combination antifungal + lauric acid
[32] = combination antifungal + propylene glycol monocaprylate
[33] = combination antifungal + undecylenic acid

## CN(Cc1ccc(C(C)(C)C)cc1)Cc1cccc2ccccc12 [Butenafine]
[1]; agent alone, Table 7
  MIC: 7.5 µg/mL
[1]; [4]
  Combination MIC: 0.468 µg/mL
[1]; [5]
  Combination MIC: 0.234 µg/mL
[1]; agent's MIC in combination terbinafine or butenafine + propylene glycol monocaprylate
  Combination MIC: 0.117 µg/mL
[1]; [6]
  FIC: 0.0625
[1]; [7]
  FIC: 0.0312
[1]; combination terbinafine or butenafine + propylene glycol monocaprylate
  FIC: 0.016
[1]; [8]
  FIC index: 0.562
  Interaction: Synergistic (Combinations that gave FIC indices less than 1 were designated “synergistic”)
[1]; [9]
  FIC index: 0.531
  Interaction: Synergistic (Combinations that gave FIC indices less than 1 were designated “synergistic”)
[1]; [10]
  FIC index: 0.516
  Interaction: Synergistic (Combinations that gave FIC indices less than 1 were designated “synergistic”)

## CCCCCCCC(=O)OCC(O)CO (stereo not shown) [Glyceryl monocaprylate]
C. albicans (ATCC-90028)
  MIC: 500 µg/mL
C. albicans (ATCC-90028); [11]
  Combination MIC: 31.25 µg/mL
C. albicans (ATCC-90028); [12]
  FIC: 0.0625
[2]; [13]
  MIC: 1250 µg/mL
[2]; [14]
  Combination MIC: 312.5 µg/mL
[2]; [15]
  FIC: 0.25
[1]; agent alone, Table 7
  MIC: 15.6 µg/mL
[1]; [5]
  Combination MIC: 7.812 µg/mL
[1]; [7]
  FIC: 0.5

## CC(=O)N1CCN(c2ccc(OCC3COC(Cn4ccnc4)(c4ccc(Cl)cc4Cl)O3)cc2)CC1 (stereo not shown) [Ketoconazole]
[2]; [16]
  MIC: 64 µg/mL
[2]; [17]
  MIC: 128 µg/mL
[2]; [13]
  MIC: 128 µg/mL
[2]; [18]
  MIC: 128 µg/mL
[2]; [19]
  MIC: 64 µg/mL
[2]; Table 14, propylene glycol monolaurate series
  MIC: 128 µg/mL
[2]; [20]
  Combination MIC: 0.25 µg/mL
[2]; [14]
  Combination MIC: 2 µg/mL
[2]; [21]
  Combination MIC: 0.25 µg/mL
[2]; [22]
  Combination MIC: 8 µg/mL
[2]; agent's MIC in combination antifungal + propylene glycol monolaurate (partner: other agent of same combination no.)
  Combination MIC: 32 µg/mL
[2]; [23]
  Combination MIC: 1 µg/mL
[2]; [24]
  FIC index: 0.253
  Interaction: Synergistic (Combinations that gave FIC indices less than 1 were designated “synergistic”)
[2]; [25]
  FIC index: 0.265
  Interaction: Synergistic (Combinations that gave FIC indices less than 1 were designated “synergistic”)
[2]; [26]
  FIC index: 0.127
  Interaction: Synergistic (Combinations that gave FIC indices less than 1 were designated “synergistic”)
[2]; [27]
  FIC index: 0.187
  Interaction: Synergistic (Combinations that gave FIC indices less than 1 were designated “synergistic”)
[2]; [28]
  FIC index: 0.281
  Interaction: Synergistic (Combinations that gave FIC indices less than 1 were designated “synergistic”)
[2]; [29]
  FIC index: 0.132
  Interaction: Synergistic (Combinations that gave FIC indices less than 1 were designated “synergistic”)
[2]; [30]
  FIC: 0.003
[2]; [15]
  FIC: 0.0156
[2]; [31]
  FIC: 0.003
[2]; [32]
  FIC: 0.0625
[2]; combination antifungal + propylene glycol monolaurate
  FIC: 0.25
[2]; [33]
  FIC: 0.0078
[3]; Table 1, caprylic acid series
  MIC: 0.312 µg/mL
[3]; Table 2, propylene glycol monocaprylate series
  MIC: 0.3 µg/mL
[3]; Table 3, glyceryl monocaprylate series
  MIC: 0.321 µg/mL
[3]; [20]
  Combination MIC: 0.0781 µg/mL
[3]; [14]
  Combination MIC: 0.009 µg/mL
[3]; [22]
  Combination MIC: 0.0375 µg/mL
[3]; [24]
  FIC index: 0.5
  Interaction: Synergistic (Combinations that gave FIC indices less than 1 were designated “synergistic”)
[3]; [25]
  FIC index: 0.531
  Interaction: Synergistic (Combinations that gave FIC indices less than 1 were designated “synergistic”)
[3]; [27]
  FIC index: 0.625
  Interaction: Synergistic (Combinations that gave FIC indices less than 1 were designated “synergistic”)
[3]; [30]
  FIC: 0.25
[3]; [15]
  FIC: 0.031
[3]; [32]
  FIC: 0.125

## CCCCCCCCCCCC(=O)O [Lauric acid]
[2]; [19]
  MIC: 3120 µg/mL
[3]; Table 5, lauric acid (C12) series
  MIC: 15.6 µg/mL

## N#C/C(=C1/SC[C@@H](c2ccc(Cl)cc2Cl)S1)n1ccnc1 [Luliconazole]
C. albicans (ATCC-90028)
  MIC: 7.5 µg/mL
C. albicans (ATCC-90028); agent's MIC in combination luliconazole + caprylic acid
  Combination MIC: 0.117 µg/mL
C. albicans (ATCC-90028); [11]
  Combination MIC: 0.117 µg/mL
C. albicans (ATCC-90028); combination luliconazole + caprylic acid
  FIC: 0.015
C. albicans (ATCC-90028); [12]
  FIC: 0.0156
C. albicans (ATCC-90028); [8]
  FIC index: 0.265
  Interaction: Synergistic (Combinations that gave FIC indices less than 1 were designated “synergistic”)
C. albicans (ATCC-90028); [9]
  FIC index: 0.0781
  Interaction: Synergistic (Combinations that gave FIC indices less than 1 were designated “synergistic”)
[2]; [16]
  MIC: 8 µg/mL
[2]; [17]
  MIC: 8 µg/mL
[2]; [18]
  MIC: 8 µg/mL
[2]; [19]
  MIC: 8 µg/mL
[2]; [20]
  Combination MIC: 0.5 µg/mL
[2]; [21]
  Combination MIC: 1 µg/mL
[2]; [22]
  Combination MIC: 0.5 µg/mL
[2]; [23]
  Combination MIC: 1 µg/mL
[2]; [24]
  FIC index: 0.3
  Interaction: Synergistic (Combinations that gave FIC indices less than 1 were designated “synergistic”)
[2]; [26]
  FIC index: 0.25
  Interaction: Synergistic (Combinations that gave FIC indices less than 1 were designated “synergistic”)
[2]; [27]
  FIC index: 0.187
  Interaction: Synergistic (Combinations that gave FIC indices less than 1 were designated “synergistic”)
[2]; [29]
  FIC index: 0.187
  Interaction: Synergistic (Combinations that gave FIC indices less than 1 were designated “synergistic”)
[2]; [30]
  FIC: 0.062
[2]; [31]
  FIC: 0.125
[2]; [32]
  FIC: 0.0625
[2]; [33]
  FIC: 0.125

## CN(C/C=C/C#CC(C)(C)C)Cc1cccc2ccccc12 [Terbinafine]
[1]; agent alone, Table 7
  MIC: 30 µg/mL
  Agent MIC: 15 µg/mL
[1]; [4]
  Combination MIC: 0.117 µg/mL
[1]; [5]
  Combination MIC: 0.468 µg/mL
[1]; [6]
  FIC: 0.0078
[1]; [7]
  FIC: 0.0312
[1]; [8]
  FIC index: 0.5007
  Interaction: Synergistic (Combinations that gave FIC indices less than 1 were designated “synergistic”)
[1]; [9]
  FIC index: 0.531
  Interaction: Synergistic (Combinations that gave FIC indices less than 1 were designated “synergistic”)
[1]; [10]
  Interaction: Synergistic (Combinations that gave FIC indices less than 1 were designated “synergistic”)

## C=CCCCCCCCCC(=O)O [Undecylenic acid]
[2]; [18]
  MIC: 500 µg/mL
[3]; Table 4, undecylenic acid (C11) series
  MIC: 31.3 µg/mL
[3]; agent alone, Table 4, undecylenic acid (C11) series
  Agent MIC: 62.5 µg/mL
